From publication PMC10783087 (Microbiology Spectrum, 2023)
Converted amounts (≈) assume the structure as drawn. Where two headings read alike, the source gives them in different places.

Experiments:
[1] = assay type: in vitro ADME, mouse; conditions: Table S5, % remaining after 30 minutes with mouse microsomes
Method: The mouse microsomal stability assay was conducted as described by Obach ([57]), and the results are presented as the percentages remaining after 30 min. Values greater than 100% are likely due to changes in the solubility of the compounds over the course of the assay and represent high stability in microsomes.

[2] = test system: primary bone marrow-derived macrophages (BMMΦ); conditions: earlier report; cited from earlier work
physchem = assay type: physicochemical; conditions: 37 °C, kinetic from dmso stock, Table S5
Method: The kinetic solubility assay was conducted as previously described ([18]). Briefly, using methods described by Bevan and Lloyd ([56]), the assay was performed with 7-point (twofold) dilutions of the compounds, from 200 to 3.125 μM along with mebendazole, bexarotene, and aspirin as controls. The drug dilutions were added to PBS, pH 7.4, with a DMSO concentration of 1% (final), and incubated at 37°C for 2 h. The absorbance at 620 nm was measured for each drug dilution to estimate the solubility of the compound in triplicate/ dilution.

MAB = conditions: at 20 µM; cited from earlier work
[3] = test system: Mtb CDC1551 FFluc reporter strain in primary bone marrow-derived macrophages; design: method as in PMID 31405862; conditions: earlier report; read-out: EC50 against intracellular Mtb; cited from earlier work
Mtb [4] = conditions: earlier report; read-out: EC50 against Mtb in vitro; cited from earlier work
Mtb [5] = experiment: microbe, parasite or virus in culture; assay type: cell-based, Mycobacterium tuberculosis; conditions: Mycobacterium tuberculosis, 144 h; for EC50: read-out: In vitro EC50; for EC90: read-out: In vitro EC90
[6] = test system: primary bone marrow-derived macrophages (BMMΦ); conditions: for Si (CC50/EC50): macrophage CC50 / in vitro Mtb EC50
in vitro [7] = conditions: mouse
Mtb [8] = conditions: cited from earlier work
M. abscessus ATCC 19977 = experiment: In vitro MIC against NTM, microbroth dilution; assay type: cell-based; conditions: 7 days
Erdman = experiment: microbe, parasite or virus in culture; assay type: cell-based; conditions: Mycobacterium tuberculosis
[9] = test system: M. avium ATC 700891 (MAC 101); experiment: In vitro MIC against NTM, microbroth dilution; assay type: cell-based; conditions: 7 days; for MIC: Mycobacterium avium, 168 h
in vitro [10] = assay type: cell-based; conditions: human, 24 h treatment
Method: For additional cell lines including HepG2, HeLa, and THP-1, the following protocol was used. HepG2 (ATCC HB-8065) and HeLa (ATCC CCL-2) were cultured in cEMEM supplemented with 10% (vol/vol)/FBS and 1%(vol/vol) PenStrep. THP-1 cells were cultured in cRPMI-1640 medium (ATCC 30-2001) supplanted with 10% (vol/vol) FBS and 0.05 mM 2-mercaptoethanol (Sigma M3148). THP-1 cells were seeded in 96 well plates at 1 × 10^5 cells/mL with complete medium. HepG2 and HeLa cells were seeded in 96 well plates with cEMEM at 1 × 10^6 cells/mL. Cells were treated with compounds by dose response in a range of 128–0.48 µg/mL in triplicate or mitomycin C at a range of 128–0.0625 µM. Cells were treated for 24 h at 37°C with 5% CO2. Cells were then treated with either MTT or resazurin for 4 h. Absorbance was then measured at 570 nm for MTT plates. Percent cytotoxicity was calculated relative to positive mitomycin C and untreated controls. Percent cytotoxicity was used to calculate the IC50 using Graphpad prism software using non-linear regression analysis.

[11] = test system: Mtb CDC1551 FFluc reporter strain in primary bone marrow-derived macrophages; experiment: microbe, parasite or virus in culture; assay type: cell-based; conditions: Mycobacterium tuberculosis, Macrophage, intracellular Mtb in BMMΦ, Table S1
H37Rv (ΔkatG) = assay type: cell-based
H37Rv = experiment: microbe, parasite or virus in culture; assay type: cell-based; conditions: Mycobacterium tuberculosis
[12] = pH 2, aqueous buffer, read-out: Kinetic solubility at pH 2.0
[13] = pH 7.4, aqueous buffer, read-out: Kinetic solubility at pH 7.4
[14] = Mycobacteroides abscessus, ATCC19977, 168 h

CC(C)N(C(=O)CSc1nc2ccc(Cl)cc2[nH]1)C(C)C [HC2099]
Microsome Stability [1]: 71%
cytotoxicity in macrophages [2]: no detectable cytotoxicity
solubility kinetic (physchem; [12]): > 300 µM
solubility kinetic (physchem; [13]): 178 µM (≈ 58 µg/mL)
inhibition of MAB growth in vitro (MAB): 96.5%
EC50 [3]: < 0.3 µM
EC50 (Mtb [4]): 1.7 µM
EC50 (Mtb [5]): 5.9 µM
EC90 (Mtb [5]): 13.7 µM
Si (CC50/EC50) [6]: >13
CC50 (in vitro [7]): > 80 µM

CC1(C)CCC(NC(=O)c2cc3c(Cl)cc(Cl)cc3[nH]2)CC1 [NITD-304]
MIC (Mtb [8]): 0.02 µM (≈ 0.00679 µg/mL)

NCC[C@H](O)C(=O)N[C@@H]1C[C@H](N)[C@@H](O[C@H]2O[C@H](CN)[C@@H](O)[C@H](O)[C@H]2O)[C@H](O)[C@H]1O[C@H]1O[C@H](CO)[C@@H](O)[C@H](N)[C@H]1O [Amikacin]
MIC (M. abscessus ATCC 19977): 6.8 µM (≈ 3.98 µg/mL)
MIC (M. abscessus ATCC 19977; [14]): 6.8 µM (≈ 3.98 µg/mL)

Cc1ccc2nc(SCC(=O)N(C(C)C)C(C)C)[nH]c2c1 [HC2183]
Microsome Stability [1]: 25%
cytotoxicity in macrophages [2]: no detectable cytotoxicity
solubility kinetic (physchem; [12]): > 300 µM
solubility kinetic (physchem; [13]): > 200 µM
EC50 [3]: 3 µM
EC50 (Mtb [4]): 3.2 µM
EC50 (Mtb [5]): 7.3 µM
EC90 (Mtb [5]): 16 µM
Si (CC50/EC50) [6]: >11
CC50 (in vitro [7]): > 80 µM

CC(C)/N=c1\cc2n(-c3ccc(Cl)cc3)c3ccccc3nc-2cc1Nc1ccc(Cl)cc1 [Clofazimine]
EC50 (Erdman): 0.3 µM

CO[C@H]1/C=C/O[C@@]2(C)Oc3c(C)c(O)c4c(O)c(c(/C=N/N5CCN(C)CC5)c(O)c4c3C2=O)NC(=O)/C(C)=C\C=C\[C@H](C)[C@H](O)[C@@H](C)[C@@H](O)[C@@H](C)[C@H](OC(C)=O)[C@@H]1C [Rifampicin]
MIC [9]: 0.07 µM (≈ 0.0576 µg/mL)

Cc1cc2nc(SCC(=O)N(C(C)C)C(C)C)[nH]c2cc1C [MSU-42766]
EC50 (Erdman): 1.3 µM
In vitro MIC, M. avium ATC 700891 (MAC 101) [9]: no detectable activity
MIC [9]: > 200 µM
IC50 (in vitro [10]; read-out: HeLa Cytotoxicity (IC50)): > 128 µg/mL
IC50 (in vitro [10]; read-out: HepG2 Cytotoxicity (IC50)): > 128 µg/mL
IC50 (in vitro [10]; read-out: THP-1 Cytotoxicity (IC50)): 39.6 µg/mL (≈ 124 µM)
MIC (M. abscessus ATCC 19977): 12 µM (≈ 3.83 µg/mL)
MIC (M. abscessus ATCC 19977; [14]): 12 µM (≈ 3.83 µg/mL)
EC50 ([11]; read-out: ex vivo EC50): 0.41 µM
EC90 ([11]; read-out: ex vivo EC90): 0.97 µM
EC50 (Mtb [5]): 1.3 µM
EC90 (Mtb [5]): 8.2 µM
S.I. (CC50 / EC50) ([6]; BMMΦ CC50 / ex vivo EC50, Table S1): > 195.6
Si (CC50/EC50) [6]: >61
CC50 (in vitro [7]): > 80 µM
MIC, H37Rv (ΔkatG) (H37Rv (ΔkatG)): 1.5 µM (≈ 0.479 µg/mL)
MIC (H37Rv; read-out: MIC, H37Rv): 1.5 µM
MIC (H37Rv; read-out: activity (MIC) against WT): 0.5 µg/mL
